Measured values reported in PubChem BioAssay (NCI).
Values joined by “and” are separate entries in the source; they are usually repeats but may differ in a detail not shown here. Equal entries are not always repeated.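 Values below derive from 48-hour exposures of cells grown in 96-well plates, with endpoints linearly interpolated between the two concentrations bracketing the appropriate inhibition level. At the GI50, growth is halved. TGI: total growth inhibition.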

Key:
Test in all cases: inhibition of tumour cell growth, NCI panel, 48 h
[1] = test system: SF-295 CNS
[2] = test system: SF-268 CNS
[3] = test system: MALME-3M melanoma
[4] = test system: HCT-116 colon
[5] = test system: OVCAR-5 ovarian
[6] = test system: HCT-15 colon
[7] = test system: IGROV1 ovarian
[8] = test system: RPMI-8226 leukemia
[9] = test system: ACHN renal
[10] = test system: LOX IMVI melanoma
[11] = test system: SNB-78 CNS
[12] = test system: KM12 colon
[13] = test system: EKVX NSCLC
[14] = test system: SN12C renal
[15] = test system: OVCAR-4 ovarian
[16] = test system: NCI/ADR-RES ovarian
[17] = test system: HT29 colon
[18] = test system: K-562 leukemia
[19] = test system: SK-OV-3 ovarian
[20] = test system: CAKI-1 renal
[21] = test system: SW-620 colon
[22] = test system: DMS 114 small cell lung
[23] = test system: MDA-N
[24] = test system: 786-0 renal
[25] = test system: SR leukemia
[26] = test system: SNB-75 CNS
[27] = test system: HOP-92 NSCLC
[28] = test system: A549 NSCLC
[29] = test system: OVCAR-8 ovarian
[30] = test system: M14 melanoma
[31] = test system: A498 renal
[32] = test system: UACC-257 melanoma
[33] = test system: TK-10 renal
[34] = test system: NCI-H226 lung
[35] = test system: SK-MEL-28 melanoma
[36] = test system: SNB-19 CNS
[37] = test system: HCC-2998 colon
[38] = test system: T-47D breast
[39] = test system: UO-31 renal
[40] = test system: LXFL 529 NSCLC
[41] = test system: MOLT-4 leukemia
[42] = test system: PC-3 prostate
[43] = test system: NCI-H522 lung
[44] = test system: NCI-H460 lung
[45] = test system: MDA-MB-435
[46] = test system: SK-MEL-2 melanoma
[47] = test system: U251 CNS
[48] = test system: COLO 205 colon
[49] = test system: HL-60(TB) leukemia
[50] = test system: OVCAR-3 ovarian
[51] = test system: HS 578T breast
[52] = test system: HOP-62 NSCLC
[53] = test system: NCI-H23 lung
[54] = test system: UACC-62 melanoma
[55] = test system: RXF 393 renal
[56] = test system: SK-MEL-5 melanoma
[57] = test system: DU-145 prostate
[58] = test system: DMS 273 small cell lung
[59] = test system: SF-539 CNS
[60] = test system: CCRF-CEM leukemia
[61] = test system: MDA-MB-231 breast

Q: How did the GI50 [1] turn out when `CC(=O)NC1C(OCc2ccccc2)OC(CO)C(O)C1OC(C)C(=O)NC(C)C(=O)N[C@@H](CCC(=O)OCCCNC1c2ccccc2Nc2cccc([N+](=O)[O-])c21)C(N)=O` (stereo partly specified) was run?
A: 67.7 nM

Q: What about the TGI [1] of the same molecule?
A: 433 nM and 59.6 nM

Q: And the GI50 [2]?
A: 19.5 nM

Q: What about the TGI [2] of the same molecule?
A: 63.9 nM and 51.2 nM

Q: And the GI50 [3]?
A: 15.7 nM

Q: What about the TGI [3] of the same molecule?
A: 32.4 nM

Q: What about the GI50 [4] of the same molecule?
A: 3.01 nM

Q: And the TGI [4]?
A: 24.2 nM and < 11.6 nM

Q: And the GI50 [5]?
A: 10.5 nM

Q: What about the TGI [5] of the same molecule?
A: 73.7 nM and 48.8 nM

Q: And the TGI [6]?
A: 24.5 nM

Q: What about the GI50 [7] of the same molecule?
A: 51.4 nM

Q: And the TGI [7]?
A: 267 nM and 86.1 nM

Q: What about the TGI [8] of the same molecule?
A: < 17.4 nM

Q: And the TGI [9]?
A: 46.5 nM and < 40.7 nM

Q: What about the GI50 [10] of the same molecule?
A: 181 nM

Q: And the TGI [10]?
A: 441 nM and 103 nM

Q: And the TGI [11]?
A: 40.7 nM

Q: What about the GI50 [12] of the same molecule?
A: 21.1 nM

Q: And the TGI [12]?
A: 51.6 nM and < 10.7 nM

Q: And the TGI [13]?
A: 33.4 nM and 35.6 nM

Q: And the GI50 [14]?
A: 17.8 nM

Q: And the TGI [14]?
A: 97.5 nM and < 12.2 nM

Q: What about the GI50 [15] of the same molecule?
A: 31.4 nM

Q: And the TGI [15]?
A: 140 nM and < 18 nM

Q: And the TGI [16]?
A: 54.5 nM

Q: What about the GI50 [17] of the same molecule?
A: 5.83 nM

Q: And the TGI [17]?
A: 29.5 nM and 10.2 nM

Q: And the TGI [18]?
A: 14.1 nM

Q: What about the GI50 [19] of the same molecule?
A: 147 nM

Q: And the TGI [19]?
A: 644 nM and 96.5 nM

Q: And the GI50 [20]?
A: 28 nM

Q: And the TGI [20]?
A: 102 nM and 16.3 nM

Q: And the GI50 [21]?
A: 1.35 nM

Q: What about the TGI [21] of the same molecule?
A: 17 nM and 55.7 nM

Q: What about the TGI [22] of the same molecule?
A: 21.5 nM

Q: What about the TGI [23] of the same molecule?
A: 31.7 nM

Q: What about the GI50 [24] of the same molecule?
A: 6.74 nM

Q: And the TGI [24]?
A: 30.6 nM

Q: And the GI50 [25]?
A: 0.3 nM

Q: What about the TGI [25] of the same molecule?
A: 9.48 nM and 22.1 nM

Q: What about the GI50 [26] of the same molecule?
A: 28.4 nM

Q: And the TGI [26]?
A: 145 nM and 48 nM

Q: What about the GI50 [27] of the same molecule?
A: 15.9 nM

Q: What about the TGI [27] of the same molecule?
A: 43.4 nM and 27 nM

Q: And the GI50 [28]?
A: 30.6 nM

Q: And the GI50 [29]?
A: 20 nM

Q: What about the TGI [29] of the same molecule?
A: 76.5 nM and 34.7 nM

Q: What about the GI50 [30] of the same molecule?
A: 20.1 nM

Q: And the TGI [30]?
A: 48.5 nM

Q: What about the TGI [31] of the same molecule?
A: 20 nM

Q: What about the TGI [32] of the same molecule?
A: 15.9 nM

Q: What about the TGI [33] of the same molecule?
A: 30.1 nM

Q: What about the GI50 [34] of the same molecule?
A: 14.7 nM

Q: And the TGI [34]?
A: 45.5 nM and < 15.1 nM

Q: What about the GI50 [35] of the same molecule?
A: 27 nM

Q: And the TGI [35]?
A: 64.3 nM and 15.5 nM

Q: What about the GI50 [36] of the same molecule?
A: 30.3 nM

Q: And the TGI [36]?
A: 211 nM and 58.4 nM

Q: What about the GI50 [37] of the same molecule?
A: 16.4 nM

Q: And the TGI [37]?
A: 32.2 nM

Q: And the TGI [38]?
A: 669 nM

Q: And the TGI [39]?
A: 38.4 nM

Q: What about the TGI [40] of the same molecule?
A: < 23.2 nM

Q: And the GI50 [41]?
A: 40.6 nM

Q: What about the TGI [41] of the same molecule?
A: 425 nM and 48.6 nM

Q: And the TGI [42]?
A: 141 nM

Q: What about the GI50 [43] of the same molecule?
A: 13.8 nM

Q: And the TGI [43]?
A: 40.5 nM and < 15.1 nM

Q: And the GI50 [44]?
A: 1.38 nM

Q: What about the TGI [44] of the same molecule?
A: 14 nM and 13 nM

Q: And the TGI [45]?
A: 30.9 nM

Q: What about the GI50 [46] of the same molecule?
A: 22.1 nM

Q: And the TGI [46]?
A: 53.2 nM

Q: And the GI50 [47]?
A: 13.8 nM

Q: What about the TGI [47] of the same molecule?
A: 49.7 nM and 15.9 nM

Q: And the GI50 [48]?
A: 13.4 nM

Q: What about the TGI [48] of the same molecule?
A: 27.4 nM

Q: And the GI50 [49]?
A: 21.1 nM

Q: What about the TGI [49] of the same molecule?
A: 125 nM and 39.8 nM

Q: And the GI50 [50]?
A: 27.2 nM

Q: And the TGI [50]?
A: 94.5 nM and 10.2 nM

Q: And the TGI [51]?
A: 72.5 nM

Q: And the GI50 [52]?
A: 23.4 nM

Q: What about the TGI [53] of the same molecule?
A: 29.5 nM

Q: What about the TGI [54] of the same molecule?
A: < 11.2 nM

Q: And the TGI [55]?
A: 32 nM

Q: And the GI50 [56]?
A: 20 nM

Q: What about the TGI [56] of the same molecule?
A: 53.8 nM and 15.2 nM

Q: What about the TGI [57] of the same molecule?
A: 79.9 nM

Q: What about the TGI [58] of the same molecule?
A: < 10.6 nM

Q: What about the GI50 [59] of the same molecule?
A: 29.7 nM

Q: What about the TGI [59] of the same molecule?
A: 110 nM and 16.7 nM

Q: And the GI50 [60]?
A: 44.4 nM and 24.9 nM

Q: What about the TGI [60] of the same molecule?
A: 422 nM and 1200 nM

Q: And the TGI [61]?
A: 74 nM
